Here are results for 22 compounds from patent publication US10987359B2, “Oxadiazepinone derivatives and methods of treating hepatitis B infections” (priority 2016, dated 2021).

Structures are written as SMILES.

In one test the test system is HBV. The experiment in a line: HBV replication inhibition assay (BDNA assay) in HepG2.2.15 cells. It is filed as cell-based. The note with it: HBV replication assay (BDNA assay), HepG2.2.15 cells; read-out: DNA EC50. A digest of the protocol: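 HepG2.2.15 cells with stably integrated HBV were treated with serially diluted compounds at 0.5% DMSO for 6 days, with medium and compound refreshed at day 3. Encapsidated HBV DNA from DNase-treated supernatant was quantified by branched DNA assay. EC50 came from % inhibition versus DMSO, fitted non-linearly.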
On to `C[C@@H]1Cc2nn3c(c2CN1C(=O)Nc1ccc(F)c(C#N)c1)C(=O)N(C)OC(CF)C3` (stereo in doubt) [Compound 087_E2, (4R*,9R)—N-(3-cyano-4-fluorophenyl)-4-(fluoromethyl)-2,9-dimethyl-1-oxo-1,4,5,8,9,11-hexahydropyrido[4′,3′:3,4]pyrazolo[5,1-d][1,2,5]oxadiazepine-10(2H)-carboxamide], for which the EC50 lay within 1 to 100 nM. Take `C[C@@H]1Cc2nn3c(c2CN1C(=O)Nc1cc(Br)c(F)cc1F)C(=O)N(C)OC(CO)C3` (stereo in doubt) [Compound 089_E2, (4R*,9R)—N-(5-bromo-2,4-difluorophenyl)-4-(hydroxymethyl)-2,9-dimethyl-1-oxo-1,4,5,8,9,11-hexahydropyrido[4′,3′:3,4]pyrazolo[5,1-d][1,2,5]oxadiazepine-10(2H)-carboxamide]: the EC50 was 1 to 100 nM.

Consider `C[C@@H]1Cc2nn3c(c2CN1C(=O)Nc1cc(Cl)c(F)cc1F)C(=O)N(C)OC(CO)C3` (stereo in doubt) [Compound 090_E2, (4R*,9R)—N-(5-chloro-2,4-difluorophenyl)-4-(hydroxymethyl)-2,9-dimethyl-1-oxo-1,4,5,8,9,11-hexahydropyrido[4′,3′:3,4]pyrazolo[5,1-d][1,2,5]oxadiazepine-10(2H)-carboxamide], for which the EC50 lay in the range of 1 to 100 nM. Same read-out and setting: as for `C[C@@H]1Cc2nn3c(c2CN1C(=O)Nc1ccc(F)c(Cl)c1F)C(=O)N(C)OC(CO)C3` (stereo in doubt) [Compound 091_E2, (4R*,9R)—N-(3-chloro-2,4-difluorophenyl)-4-(hydroxymethyl)-2,9-dimethyl-1-oxo-1,4,5,8,9,11-hexahydropyrido[4′,3′:3,4]pyrazolo[5,1-d][1,2,5]oxadiazepine-10(2H)-carboxamide], the figure is 1 to 100 nM; as for `C[C@@H]1Cc2nn3c(c2CN1C(=O)Nc1ccc(F)c(Br)c1)C(=O)N(C)OC(CN(C)C)C3` (stereo in doubt) [Compound 094_D2, (4R*,9R)—N-(3-bromo-4-fluorophenyl)-4-((dimethylamino)methyl)-2,9-dimethyl-1-oxo-1,4,5,8,9,11-hexahydropyrido[4′,3′:3,4]pyrazolo[5,1-d][1,2,5]oxadiazepine-10(2H)-carboxamide], 1 to 100 nM.

With `C[C@@H]1Cc2nn3c(c2CN1C(=O)Nc1ccnc(Br)c1F)C(=O)N(C)OC(CN(C)C)C3` (stereo in doubt) [Compound 095_D2, (4R*,9R)—N-(2-bromo-3-fluoropyridin-4-yl)-4-((dimethylamino)methyl)-2,9-dimethyl-1-oxo-1,4,5,8,9,11-hexahydropyrido[4′,3′:3,4]pyrazolo[5,1-d][1,2,5]oxadiazepine-10(2H)-carboxamide], the EC50 fell in the range of 100 to 500 nM. As to `C[C@@H]1Cc2nn3c(c2CN1C(=O)Nc1ccc(F)c(C#N)c1)C(=O)N(C)OC(CN(C)C)C3` (stereo in doubt) [Compound 096_D1, (4S*,9R)—N-(3-cyano-4-fluorophenyl)-4-((dimethylamino)methyl)-2,9-dimethyl-1-oxo-1,4,5,8,9,11-hexahydropyrido[4′,3′:3,4]pyrazolo[5,1-d][1,2,5]oxadiazepine-10(2H)-carboxamide], the EC50 lay in the range of 100 to 500 nM. Take `C[C@@H]1Cc2nn3c(c2CN1C(=O)Nc1ccc(F)c(C#N)c1)C(=O)N(C)OC(CN(C)C)C3` (stereo in doubt) [Compound 096_D2, (4R*,9R)—N-(3-cyano-4-fluorophenyl)-4-((dimethylamino)methyl)-2,9-dimethyl-1-oxo-1,4,5,8,9,11-hexahydropyrido[4′,3′:3,4]pyrazolo[5,1-d][1,2,5]oxadiazepine-10(2H)-carboxamide]: the EC50 lay within 1 to 100 nM.

Take `Cc1cc(NC(=O)N2Cc3c(nn4c3C(=O)N(C)OC(CN(C)C)C4)C[C@H]2C)ccc1F` (stereo in doubt) [Compound 097_D2, (4R*,9R)-4-((dimethylamino)methyl)-N-(4-fluoro-3-methylphenyl)-2,9-dimethyl-1-oxo-1,4,5,8,9,11-hexahydropyrido[4′,3′:3,4]pyrazolo[5,1-d][1,2,5]oxadiazepine-10(2H)-carboxamide]: the EC50 was in the range of 1 to 100 nM.

Consider `C[C@@H]1Cc2nn3c(c2CN1C(=O)Nc1ccc(F)c(C(F)(F)F)c1)C(=O)N(C)OC(CN(C)C)C3` (stereo in doubt) [Compound 098_D2, (4R*,9R)-4-((dimethylamino)methyl)-N-(4-fluoro-3-(trifluoromethyl)phenyl)-2,9-dimethyl-1-oxo-1,4,5,8,9,11-hexahydropyrido[4′,3′:3,4]pyrazolo[5,1-d][1,2,5]oxadiazepine-10(2H)-carboxamide], for which the EC50 lay within 1 to 100 nM.

For `C[C@@H]1Cc2nn3c(c2CN1C(=O)Nc1cc(Cl)c(F)cc1F)C(=O)N(C)OC(CN(C)C)C3` (stereo in doubt) [Compound 099_D2, (4R*,9R)—N-(5-chloro-2,4-difluorophenyl)-4-((dimethylamino)methyl)-2,9-dimethyl-1-oxo-1,4,5,8,9,11-hexahydropyrido[4′,3′:3,4]pyrazolo[5,1-d][1,2,5]oxadiazepine-10(2H)-carboxamide], the EC50 lay within 100 to 500 nM. Take `C[C@@H]1Cc2nn3c(c2CN1C(=O)Nc1cc(Br)c(F)cc1F)C(=O)N(C)OC(CN(C)C)C3` (stereo in doubt) [Compound 100_D1, (4S*,9R)—N-(5-bromo-2,4-difluorophenyl)-4-((dimethylamino)methyl)-2,9-dimethyl-1-oxo-1,4,5,8,9,11-hexahydropyrido[4′,3′:3,4]pyrazolo[5,1-d][1,2,5]oxadiazepine-10(2H)-carboxamide]: the EC50 is 100 to 500 nM.

The test is the same for the next values; noted with them: Hepatitis B virus, HepG2.2.15, HBV replication assay (BDNA assay), HepG2.2.15 cells; read-out: DNA EC50.
Consider `C[C@@H]1Cc2nn3c(c2CN1C(=O)Nc1ccc(F)c(C#N)c1)C(=O)N(C)OC(CF)C3` (stereo in doubt) [Compound 087_E1, (4S*,9R)—N-(3-cyano-4-fluorophenyl)-4-(fluoromethyl)-2,9-dimethyl-1-oxo-1,4,5,8,9,11-hexahydropyrido[4′,3′:3,4]pyrazolo[5,1-d][1,2,5]oxadiazepine-10(2H)-carboxamide], for which the half-maximal effective concentration (EC50) is 1 to 100 nM.

Take `C[C@@H]1Cc2nn3c(c2CN1C(=O)Nc1cc(Br)c(F)cc1F)C(=O)N(C)OC(CO)C3` (stereo in doubt) [Compound 089_E1, (4S*,9R)—N-(5-bromo-2,4-difluorophenyl)-4-(hydroxymethyl)-2,9-dimethyl-1-oxo-1,4,5,8,9,11-hexahydropyrido[4′,3′:3,4]pyrazolo[5,1-d][1,2,5]oxadiazepine-10(2H)-carboxamide]: the EC50 lay within 1 to 100 nM.

Take `C[C@@H]1Cc2nn3c(c2CN1C(=O)Nc1cc(Cl)c(F)cc1F)C(=O)N(C)OC(CO)C3` (stereo in doubt) [Compound 090_E1, (4S*,9R)—N-(5-chloro-2,4-difluorophenyl)-4-(hydroxymethyl)-2,9-dimethyl-1-oxo-1,4,5,8,9,11-hexahydropyrido[4′,3′:3,4]pyrazolo[5,1-d][1,2,5]oxadiazepine-10(2H)-carboxamide]: the EC50 was 1 to 100 nM. In the case of `C[C@@H]1Cc2nn3c(c2CN1C(=O)Nc1ccc(F)c(Cl)c1F)C(=O)N(C)OC(CO)C3` (stereo in doubt) [Compound 091_E1, (4S*,9R)—N-(3-chloro-2,4-difluorophenyl)-4-(hydroxymethyl)-2,9-dimethyl-1-oxo-1,4,5,8,9,11-hexahydropyrido[4′,3′:3,4]pyrazolo[5,1-d][1,2,5]oxadiazepine-10(2H)-carboxamide], the EC50 lay within 1 to 100 nM. As to `C[C@@H]1Cc2nn3c(c2CN1C(=O)Nc1ccc(F)c(Cl)c1)C(=O)N(C)OC(CN(C)C)C3` (stereo in doubt) [Compound 093_D2, (4R*,9R)—N-(3-chloro-4-fluorophenyl)-4-((dimethylamino)methyl)-2,9-dimethyl-1-oxo-1,4,5,8,9,11-hexahydropyrido[4′,3′:3,4]pyrazolo[5,1-d][1,2,5]oxadiazepine-10(2H)-carboxamide], the EC50 lay in the range of 1 to 100 nM. In the case of `C[C@@H]1Cc2nn3c(c2CN1C(=O)Nc1ccc(F)c(Br)c1)C(=O)N(C)OC(CN(C)C)C3` (stereo in doubt) [Compound 094_D1, (4S*,9R)—N-(3-bromo-4-fluorophenyl)-4-((dimethylamino)methyl)-2,9-dimethyl-1-oxo-1,4,5,8,9,11-hexahydropyrido[4′,3′:3,4]pyrazolo[5,1-d][1,2,5]oxadiazepine-10(2H)-carboxamide], the EC50 fell in the range of 1 to 100 nM. Consider `C[C@@H]1Cc2nn3c(c2CN1C(=O)Nc1ccnc(Br)c1F)C(=O)N(C)OC(CN(C)C)C3` (stereo in doubt) [Compound 095_D1, (4S*,9R)—N-(2-bromo-3-fluoropyridin-4-yl)-4-((dimethylamino)methyl)-2,9-dimethyl-1-oxo-1,4,5,8,9,11-hexahydropyrido[4′,3′:3,4]pyrazolo[5,1-d][1,2,5]oxadiazepine-10(2H)-carboxamide], for which the EC50 is 100 to 500 nM. On to `Cc1cc(NC(=O)N2Cc3c(nn4c3C(=O)N(C)OC(CN(C)C)C4)C[C@H]2C)ccc1F` (stereo in doubt) [Compound 097_D1, (4 S*,9R)-4-((dimethylamino)methyl)-N-(4-fluoro-3-methylphenyl)-2,9-dimethyl-1-oxo-1,4,5,8,9,11-hexahydropyrido[4′,3′:3,4]pyrazolo[5,1-d][1,2,5]oxadiazepine-10(2H)-carboxamide], for which the EC50 was in the range of 1 to 100 nM. In the case of `C[C@@H]1Cc2nn3c(c2CN1C(=O)Nc1ccc(F)c(C(F)(F)F)c1)C(=O)N(C)OC(CN(C)C)C3` (stereo in doubt) [Compound 098_D1, (4S*,9R)-4-((dimethylamino)methyl)-N-(4-fluoro-3-(trifluoromethyl)phenyl)-2,9-dimethyl-1-oxo-1,4,5,8,9,11-hexahydropyrido[4′,3′:3,4]pyrazolo[5,1-d][1,2,5]oxadiazepine-10(2H)-carboxamide], the 50% effective concentration (EC50) was 1 to 100 nM. As to `C[C@@H]1Cc2nn3c(c2CN1C(=O)Nc1cc(Cl)c(F)cc1F)C(=O)N(C)OC(CN(C)C)C3` (stereo in doubt) [Compound 099_D1, (4S*,9R)—N-(5-chloro-2,4-difluorophenyl)-4-((dimethylamino)methyl)-2,9-dimethyl-1-oxo-1,4,5,8,9,11-hexahydropyrido[4′,3′:3,4]pyrazolo[5,1-d][1,2,5]oxadiazepine-10(2H)-carboxamide], the EC50 is 100 to 500 nM.
